The structures appear in SMILES notation.

Sequence of interaction between GST-MAGEA11 MHD and FAM-PCF11_4 peptide (MAGE-A11:PCF11) (P43364 218-429): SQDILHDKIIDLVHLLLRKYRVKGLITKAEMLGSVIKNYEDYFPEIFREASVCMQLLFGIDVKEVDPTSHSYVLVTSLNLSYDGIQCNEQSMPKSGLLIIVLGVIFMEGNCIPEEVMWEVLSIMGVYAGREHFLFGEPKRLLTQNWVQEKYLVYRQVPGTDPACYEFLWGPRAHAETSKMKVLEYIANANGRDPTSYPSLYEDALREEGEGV

One assay addresses interaction between GST-MAGEA11 MHD and FAM-PCF11_4 peptide (MAGE-A11:PCF11) (Homo sapiens (Human), UniProt P43364). As to the kind of experiment: TR-FRET dose response competition assay for disruption of MAGE-A11:PCF11 binding. As to conditions: Dose response TR-FRET screening of nine scaffold groups against MAGE-A11:PCF11; read-out: consensus IC50. Summed up: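 Competition TR-FRET at room temperature in 50 mM Tris pH 7.5, 20 mM MgCl2, 0.1 mg/ml BSA, 1 mM DTT: final 5 nM GST-MAGEA11 MHD, 5 nM Tb-anti-GST, 200 nM FAM-PCF11_4, 90 min. Ratio 520/490 nm converted to % inhibition; IC50 from sigmoidal fit.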
(In general: Time-resolved FRET reads energy transfer from a long-lived donor to a nearby acceptor.)
`COc1cccc(CNCCCNc2ccnc3cc(Oc4ccc(C(C)(C)C)cc4)ccc23)c1O` [SJ000311235-1]: the IC50 – broadly, the midpoint of a concentration-inhibition curve – was 7.65 µM.

Regarding `CC(C)(C)c1ccc(Oc2ccc3c(NCCCNCc4cccc5c4OCO5)ccnc3c2)cc1` [SJ000311236-1], the IC50 is 8.67 µM. Still for that read-out and setting: to `COc1ccc(F)cc1CNCCCNc1ccnc2cc(Oc3ccc(C(C)(C)C)cc3)ccc12` [SJ000311237-1] belongs 6.29 µM; to `COc1cccc(CNCCCNc2ccnc3cc(-c4ccc(F)cc4)ccc23)c1O` [SJ000311239-1], 33.3 µM; to `Fc1ccc(-c2ccc3c(NCCCNCc4cccc5c4OCO5)ccnc3c2)cc1` [SJ000311240-1], 25 µM. For the compound `COc1ccc(F)cc1CNCCCNc1ccnc2cc(-c3ccc(F)cc3)ccc12` [SJ000311241-1], the IC50 was found to be 38.9 µM. As for `COc1cccc(CNCCCNc2ccnc3cc(Cc4ccc(F)cc4)ccc23)c1O` [SJ000311243-1], the IC50 stood at 43.6 µM.

For `Fc1ccc(Cc2ccc3c(NCCCNCc4cccc5c4OCO5)ccnc3c2)cc1` [SJ000311244-1], the IC50 stood at 42.3 µM. As to `COc1ccc(F)cc1CNCCCNc1ccnc2cc(Cc3ccc(F)cc3)ccc12` [SJ000311245-1], the concentration for half-maximal inhibition (IC50) stood at 35.1 µM.

Consider `COc1cccc(CNCCCNc2ccnc3cc(CCC(C)C)ccc23)c1O` [SJ000311247-1], for which the IC50 came to 69.9 µM. On the same count and under the same terms, to `CC(C)CCc1ccc2c(NCCCNCc3cccc4c3OCO4)ccnc2c1` [SJ000311248-1] belongs 27.7 µM; to `COc1ccc(F)cc1CNCCCNc1ccnc2cc(CCC(C)C)ccc12` [SJ000311249-1], 69.9 µM. Same read-out and setting: the same measure for `COc1cccc(CNCCCNc2ccnc3cc(CC4CCCCC4)ccc23)c1O` [SJ000311251-1]: 29.2 µM; for `c1cc(CNCCCNc2ccnc3cc(CC4CCCCC4)ccc23)c2c(c1)OCO2` [SJ000311252-1]: 16 µM; for `COc1ccc(F)cc1CNCCCNc1ccnc2cc(CC3CCCCC3)ccc12` [SJ000311253-1]: 26.3 µM.

The same assay, now with this note: Table 5, dose response TR-FRET screening of 59 quinoline compounds against MAGE-A11:PCF11; read-out: TR-FRET IC50.
Turning to `c1coc(CNCCCNc2ccnc3cc(CC4CCCCC4)ccc23)c1` [SJ000311250-1], the IC50 came to 54.9 µM.

The assay is the same for the next values; noted with them: Table 8, representative compounds; read-out: TR-FRET IC50.
Consider `COc1cccc(CNCCCNc2ccnc3cc(Oc4ccc(C(C)(C)C)cc4)ccc23)c1O` [SJ000311235], for which the IC50 came out at 7.65 µM. Take `CC(C)(C)c1ccc(Oc2ccc3c(NCCCNCc4cccc5c4OCO5)ccnc3c2)cc1` [SJ000311236]: the half-inhibitory concentration (IC50) came to 8.67 µM.

Regarding `COc1ccc(F)cc1CNCCCNc1ccnc2cc(Oc3ccc(C(C)(C)C)cc3)ccc12` [SJ000311237], the IC50 is 6.29 µM. Consider `COc1cccc(CNCCCNc2ccnc3cc(-c4ccc(F)cc4)ccc23)c1O` [SJ000311239], for which the IC50 came out at 33.3 µM. Regarding `Fc1ccc(-c2ccc3c(NCCCNCc4cccc5c4OCO5)ccnc3c2)cc1` [SJ000311240], the half-inhibitory concentration (IC50) worked out at 25 µM. Still for that read-out and setting: to `COc1ccc(F)cc1CNCCCNc1ccnc2cc(-c3ccc(F)cc3)ccc12` [SJ000311241] belongs 38.9 µM; to `COc1cccc(CNCCCNc2ccnc3cc(Cc4ccc(F)cc4)ccc23)c1O` [SJ000311243], 43.6 µM; to `Fc1ccc(Cc2ccc3c(NCCCNCc4cccc5c4OCO5)ccnc3c2)cc1` [SJ000311244], 42.3 µM. Same read-out and setting: to `COc1ccc(F)cc1CNCCCNc1ccnc2cc(Cc3ccc(F)cc3)ccc12` [SJ000311245] belongs 35.1 µM; to `COc1cccc(CNCCCNc2ccnc3cc(CCC(C)C)ccc23)c1O` [SJ000311247], 69.9 µM. On the same count and under the same terms, the same measure for `CC(C)CCc1ccc2c(NCCCNCc3cccc4c3OCO4)ccnc2c1` [SJ000311248]: 27.7 µM; for `COc1ccc(F)cc1CNCCCNc1ccnc2cc(CCC(C)C)ccc12` [SJ000311249]: 69.9 µM; for `COc1cccc(CNCCCNc2ccnc3cc(CC4CCCCC4)ccc23)c1O` [SJ000311251]: 29.2 µM. `c1cc(CNCCCNc2ccnc3cc(CC4CCCC4)ccc23)c2c(c1)OCO2` [SJ000311252]: the IC50 was 16 µM. In the case of `COc1ccc(F)cc1CNCCCNc1ccnc2cc(CC3CCCCC3)ccc12` [SJ000311253], the IC50 was 26.3 µM.

Source of the values: patent publication US20240246941A1, “SUBSTITUTED 4-(3-AMINOPROP-1-YL)AMINOQUINOLINE ANALOGS AS MODULATORS OF MELANOMA-ASSOCIATED ANTIGEN 11 UBIQUITIN LIGASE” (ST. JUDE CHILDREN'S RESEARCH HOSPITAL, INC., priority 2020, published 2024).
